Laboratory results taken from PMC10033419, “Blocking NS3–NS4B interaction inhibits dengue virus in non-human primates” (Nature, 2023).
Several values for one entry are separate records, joined by “and”; a condition that tells them apart may be missing. Equal values may be shown once.

How the values were obtained:
DENV-2 RL strain = assay: In vivo kinetics study, low viral inoculum (10^2 PFU)
[1] = ATPLite cell viability assay; type: cell-based; settings: human, Huh-7 cells; Huh-7, n=1
Procedure: In parallel, the toxicity was measured using an ATPLite cell viability luminescence assay (PerkinElmer). The assays were performed in three different cell types (Vero, Huh-7 and THP-1/DC-SIGN) as described in ref. [3] to exclude cell-specific activity of the compound.

[2] = 2 mg/kg/d, day 4 p.i., individual mice
[3] = 2 mg/kg/d, day 5 p.i., individual mice
[4] = 20 mg/kg/d, day 1 p.i., individual mice
[5] = 20 mg/kg/d, day 2 p.i., individual mice
[6] = 20 mg/kg/d, day 3 p.i., individual mice
[7] = 20 mg/kg/d, day 4 p.i., individual mice
[8] = 20 mg/kg/d, day 5 p.i., individual mice
[9] = JNJ-1802 0.2 mg/kg/d, day 5 p.i., individual mice, 0.2 mg/kg/day
[10] = JNJ-1802 0.2 mg/kg/d, day 6 p.i., individual mice, 0.2 mg/kg/day
[11] = JNJ-1802 0.2 mg/kg/d, day 8 p.i., individual mice, 0.2 mg/kg/day
[12] = JNJ-1802 0.2 mg/kg/d, day 11 p.i., individual mice
[13] = JNJ-1802 2 mg/kg/d, day 5 p.i., individual mice
[14] = JNJ-1802 2 mg/kg/d, day 6 p.i., individual mice
[15] = JNJ-1802 2 mg/kg/d, day 8 p.i., individual mice
[16] = JNJ-1802 2 mg/kg/d, day 11 p.i., individual mice, 2 mg/kg/day
[17] = JNJ-1802 20 mg/kg/d, day 5 p.i., individual mice
[18] = JNJ-1802 20 mg/kg/d, day 6 p.i., individual mice
[19] = JNJ-1802 20 mg/kg/d, day 8 p.i., individual mice
[20] = JNJ-1802 20 mg/kg/d, day 11 p.i., individual mice

SMILES: COc1cc(N[C@H](C(=O)c2c[nH]c3ccc(OC(F)(F)F)cc23)c2ccc(Cl)cc2OC)cc(S(C)(=O)=O)c1 [JNJ-1802]
- In vivo kinetics, Copies/ml (DENV-2 RL strain; [2]): 3.93E+02 Copies/ml
- In vivo kinetics, Log10 of Copies/ml (DENV-2 RL strain; [2]): 2.5940 Log10
- In vivo kinetics, Mean of Log10 (DENV-2 RL strain; 2 mg/kg/d, day 5 p.i., group mean): 2.59 Log10
- In vivo kinetics, Copies/ml (DENV-2 RL strain; [3]): 3.93E+02 Copies/ml
- In vivo kinetics, Log10 of Copies/ml (DENV-2 RL strain; [3]): 2.5940 Log10
- In vivo kinetics, Mean of Log10 (DENV-2 RL strain; 20 mg/kg/d, day 1 p.i., group mean): 2.59 Log10
- In vivo kinetics, Copies/ml (DENV-2 RL strain; [4]): 3.93E+02 Copies/ml
- In vivo kinetics, Log10 of Copies/ml (DENV-2 RL strain; [4]): 2.5940 Log10
- In vivo kinetics, Mean of Log10 (DENV-2 RL strain; 20 mg/kg/d, day 2 p.i., group mean): 2.59 Log10
- In vivo kinetics, Copies/ml (DENV-2 RL strain; [5]): 3.93E+02 Copies/ml
- In vivo kinetics, Log10 of Copies/ml (DENV-2 RL strain; [5]): 2.5940 Log10
- In vivo kinetics, Mean of Log10 (DENV-2 RL strain; 20 mg/kg/d, day 3 p.i., group mean): 2.75 Log10
- In vivo kinetics, Copies/ml (DENV-2 RL strain; [6]): 3.93E+02 Copies/ml and 6.76E+03 Copies/ml
- In vivo kinetics, Log10 of Copies/ml (DENV-2 RL strain; [6]): 2.5940 Log10 and 3.8298 Log10
- In vivo kinetics, Mean of Log10 (DENV-2 RL strain; 20 mg/kg/d, day 4 p.i., group mean): 2.59 Log10
- In vivo kinetics, Copies/ml (DENV-2 RL strain; [7]): 3.93E+02 Copies/ml
- In vivo kinetics, Log10 of Copies/ml (DENV-2 RL strain; [7]): 2.5940 Log10
- In vivo kinetics, Mean of Log10 (DENV-2 RL strain; 20 mg/kg/d, day 5 p.i., group mean): 2.76 Log10
- In vivo kinetics, Copies/ml (DENV-2 RL strain; [8]): 3.93E+02 Copies/ml and 7.90E+03 Copies/ml
- In vivo kinetics, Log10 of Copies/ml (DENV-2 RL strain; [8]): 2.5940 Log10 and 3.8977 Log10
- effect on body weight (DENV-2 RL strain; 20, 2 or 0.2 mg per kg per day b.i.d., 6 days): did not affect body weight
- mean viral load vs vehicle (DENV-2 RL strain; 20 and 2 mg per kg per day b.i.d., on 6 out of 8 days): reduced to undetectable levels
- In vivo kinetics - viral RNA, Copies/ml (DENV-2 RL strain; [9]): 4.57E+04 Copies/ml and 9.46E+04 Copies/ml and 4.38E+05 Copies/ml
- In vivo kinetics - viral RNA, Log10 (DENV-2 RL strain; [9]): 4.6597 Log10 and 4.9759 Log10 and 5.6413 Log10
- In vivo kinetics - viral RNA, Mean of Log10 (DENV-2 RL strain; JNJ-1802 0.2 mg/kg/d, day 6 p.i., group mean): 4.69 Log10
- In vivo kinetics - viral RNA, Copies/ml (DENV-2 RL strain; [10]): 4.46E+04 Copies/ml and 2.63E+04 Copies/ml and 2.31E+04 Copies/ml and 1.84E+05 Copies/ml and 8.21E+04 Copies/ml and 8.40E+03 Copies/ml
- In vivo kinetics - viral RNA, Log10 (DENV-2 RL strain; [10]): 4.6493 Log10 and 4.4198 Log10 and 4.8549 Log10 and 5.1560 Log10 and 4.3639 Log10 and 5.2645 Log10 and 4.9143 Log10 and 3.9243 Log10
- In vivo kinetics - viral RNA, Mean of Log10 (DENV-2 RL strain; JNJ-1802 0.2 mg/kg/d, day 8 p.i., group mean): 3.63 Log10
- In vivo kinetics - viral RNA, Copies/ml (DENV-2 RL strain; [11]): 3.93E+02 Copies/ml and 4.25E+05 Copies/ml and 5.92E+05 Copies/ml
- In vivo kinetics - viral RNA, Log10 (DENV-2 RL strain; [11]): 2.5940 Log10 and 5.6283 Log10 and 5.7725 Log10
- In vivo kinetics - viral RNA, Mean of Log10 (DENV-2 RL strain; JNJ-1802 0.2 mg/kg/d, day 11 p.i., group mean): 2.59 Log10
- In vivo kinetics - viral RNA, Copies/ml (DENV-2 RL strain; [12]): 3.93E+02 Copies/ml
- In vivo kinetics - viral RNA, Log10 (DENV-2 RL strain; [12]): 2.5940 Log10
- In vivo kinetics - viral RNA, Copies/ml (DENV-2 RL strain; [13]): 3.93E+02 Copies/ml
- In vivo kinetics - viral RNA, Log10 (DENV-2 RL strain; [13]): 2.5940 Log10
- In vivo kinetics - viral RNA, Mean of Log10 (DENV-2 RL strain; JNJ-1802 2 mg/kg/d, day 6 p.i., group mean): 2.59 Log10
- In vivo kinetics - viral RNA, Copies/ml (DENV-2 RL strain; [14]): 3.93E+02 Copies/ml
- In vivo kinetics - viral RNA, Log10 (DENV-2 RL strain; [14]): 2.5940 Log10
- In vivo kinetics - viral RNA, Mean of Log10 (DENV-2 RL strain; JNJ-1802 2 mg/kg/d, day 8 p.i., group mean): 2.59 Log10
- In vivo kinetics - viral RNA, Copies/ml (DENV-2 RL strain; [15]): 3.93E+02 Copies/ml
- In vivo kinetics - viral RNA, Log10 (DENV-2 RL strain; [15]): 2.5940 Log10
- In vivo kinetics - viral RNA, Mean of Log10 (DENV-2 RL strain; JNJ-1802 2 mg/kg/d, day 11 p.i., group mean): 2.74 Log10
- In vivo kinetics - viral RNA, Copies/ml (DENV-2 RL strain; [16]): 3.93E+02 Copies/ml and 3.01E+03 Copies/ml
- In vivo kinetics - viral RNA, Log10 (DENV-2 RL strain; [16]): 2.5940 Log10 and 3.4790 Log10
- In vivo kinetics - viral RNA, Copies/ml (DENV-2 RL strain; [17]): 3.93E+02 Copies/ml
- In vivo kinetics - viral RNA, Log10 (DENV-2 RL strain; [17]): 2.5940 Log10
- In vivo kinetics - viral RNA, Mean of Log10 (DENV-2 RL strain; JNJ-1802 20 mg/kg/d, day 6 p.i., group mean): 2.59 Log10
- In vivo kinetics - viral RNA, Copies/ml (DENV-2 RL strain; [18]): 3.93E+02 Copies/ml
- In vivo kinetics - viral RNA, Log10 (DENV-2 RL strain; [18]): 2.5940 Log10
- In vivo kinetics - viral RNA, Mean of Log10 (DENV-2 RL strain; JNJ-1802 20 mg/kg/d, day 8 p.i., group mean): 2.59 Log10
- In vivo kinetics - viral RNA, Copies/ml (DENV-2 RL strain; [19]): 3.93E+02 Copies/ml
- In vivo kinetics - viral RNA, Log10 (DENV-2 RL strain; [19]): 2.5940 Log10
- In vivo kinetics - viral RNA, Mean of Log10 (DENV-2 RL strain; JNJ-1802 20 mg/kg/d, day 11 p.i., group mean): 2.59 Log10
- In vivo kinetics - viral RNA, Copies/ml (DENV-2 RL strain; [20]): 3.93E+02 Copies/ml
- In vivo kinetics - viral RNA, Log10 (DENV-2 RL strain; [20]): 2.5940 Log10
- In vivo kinetics, Mean of Log10 (DENV-2 RL strain; mouse, in vivo): 2.78 Log10
- In vivo kinetics - viral RNA, Copies/ml (DENV-2 RL strain; mouse, in vivo, 0.2 mg/kg/day): 7.16E+04 Copies/ml and 1.43E+05 Copies/ml
- CC50 [1]: 12.7 µM
